ChEMBL document CHEMBL2150853 (Eur J Med Chem, 2011)

test system: not listed separately; assay: Antiprion activity against mouse prion protein RML infected mouse ScN2a cells assessed as reduction of PrPSc level by Western blot method; assay type: cell-based; details: not given

Structure (SMILES)	EC50 [µM]
COc1ccc2nc3cc(Cl)ccc3c(NC3CCN(CCCc4ccccc4)CC3)c2c1	0.093
COc1ccc2nc3cc(Cl)ccc3c(Nc3ccccc3)c2c1	0.54
COc1ccc2nc3cc(Cl)ccc3c(Nc3ccc(CN4CCN(C)CC4)cc3)c2c1	0.06
COc1ccc2nc3cc(Cl)ccc3c(Nc3ccc(N4CCN(C)CC4)cc3)c2c1	0.1
CCN(CC)CCCC(C)Nc1c2ccc(Cl)cc2nc2ccc(OC)cc12 (stereo not drawn) [QUINACRINE]	0.23
COc1ccc2nc3cc(Cl)ccc3c(NC3CCN(CCc4ccccc4)CC3)c2c1	0.13
COc1ccc2nc3cc(Cl)ccc3c(NC3CC4CCC(C3)N4Cc3ccccc3)c2c1 (stereo not drawn)	0.054

test system: ScN2a; assay: Antiprion activity against mouse prion protein RML infected mouse ScN2a cells assessed as drug level required for more than 99 percent reduction of PrPSc level by Western blot method; assay type: cell-based; details: not given

Structure (SMILES)	Activity [µM]
COc1ccc2nc3cc(Cl)ccc3c(NC3CCN(CCCc4ccccc4)CC3)c2c1	1
COc1ccc2nc3cc(Cl)ccc3c(Nc3ccc(CN4CCN(C)CC4)cc3)c2c1	0.5
COc1ccc2nc3cc(Cl)ccc3c(Nc3ccc(N4CCN(C)CC4)cc3)c2c1	0.4
CCN(CC)CCCC(C)Nc1c2ccc(Cl)cc2nc2ccc(OC)cc12 (stereo not drawn) [QUINACRINE]	0.8
COc1ccc2nc3cc(Cl)ccc3c(NC3CCN(CCc4ccccc4)CC3)c2c1	0.5
COc1ccc2nc3cc(Cl)ccc3c(NC3CC4CCC(C3)N4Cc3ccccc3)c2c1 (stereo not drawn)	2

test system: not listed separately; assay: Antiprion activity against mouse prion protein 22L infected mouse N167 cells assessed as reduction of PrPSc level by Western blot method; assay type: cell-based; details: not given

Structure (SMILES)	EC50 [µM]
COc1ccc2nc3cc(Cl)ccc3c(NC3CCN(CCCc4ccccc4)CC3)c2c1	0.32
COc1ccc2nc3cc(Cl)ccc3c(Nc3ccc(CN4CCN(C)CC4)cc3)c2c1	0.35
COc1ccc2nc3cc(Cl)ccc3c(Nc3ccc(N4CCN(C)CC4)cc3)c2c1	0.42
CCN(CC)CCCC(C)Nc1c2ccc(Cl)cc2nc2ccc(OC)cc12 (stereo not drawn) [QUINACRINE]	0.59
COc1ccc2nc3cc(Cl)ccc3c(NC3CCN(CCc4ccccc4)CC3)c2c1	0.23
COc1ccc2nc3cc(Cl)ccc3c(NC3CC4CCC(C3)N4Cc3ccccc3)c2c1 (stereo not drawn)	0.35

test system: N167; assay: Antiprion activity against mouse prion protein 22L infected mouse N167 cells assessed as drug level required for more than 99 percent reduction of PrPSc level by Western blot method; assay type: cell-based; details: not given

Structure (SMILES)	Activity [µM]
COc1ccc2nc3cc(Cl)ccc3c(NC3CCN(CCCc4ccccc4)CC3)c2c1	1
COc1ccc2nc3cc(Cl)ccc3c(Nc3ccc(CN4CCN(C)CC4)cc3)c2c1	2
COc1ccc2nc3cc(Cl)ccc3c(Nc3ccc(N4CCN(C)CC4)cc3)c2c1	1.5
COc1ccc2nc3cc(Cl)ccc3c(NC3CCN(CCc4ccccc4)CC3)c2c1	1
COc1ccc2nc3cc(Cl)ccc3c(NC3CC4CCC(C3)N4Cc3ccccc3)c2c1 (stereo not drawn)	1

test system: not listed separately; assay: Antiprion activity against human prion protein Fukuoka-1 infected mouse F3 cells assessed as reduction of PrPSc level by Western blot method; assay type: cell-based; details: N2a #58 F3

Structure (SMILES)	EC50 [µM]
COc1ccc2nc3cc(Cl)ccc3c(NC3CCN(CCCc4ccccc4)CC3)c2c1	1.04
COc1ccc2nc3cc(Cl)ccc3c(Nc3ccc(CN4CCN(C)CC4)cc3)c2c1	0.86
COc1ccc2nc3cc(Cl)ccc3c(Nc3ccc(N4CCN(C)CC4)cc3)c2c1	0.68
COc1ccc2nc3cc(Cl)ccc3c(NC3CCN(CCc4ccccc4)CC3)c2c1	0.19
COc1ccc2nc3cc(Cl)ccc3c(NC3CC4CCC(C3)N4Cc3ccccc3)c2c1 (stereo not drawn)	0.54

test system: N2a #58 F3; assay: Antiprion activity against human prion protein Fukuoka-1 infected mouse F3 cells assessed as drug level required for more than 99 percent reduction of PrPSc level by Western blot method; assay type: cell-based; details: not given

Structure (SMILES)	Activity [µM]
COc1ccc2nc3cc(Cl)ccc3c(NC3CCN(CCCc4ccccc4)CC3)c2c1	3
COc1ccc2nc3cc(Cl)ccc3c(Nc3ccc(CN4CCN(C)CC4)cc3)c2c1	3
COc1ccc2nc3cc(Cl)ccc3c(Nc3ccc(N4CCN(C)CC4)cc3)c2c1	1.5
COc1ccc2nc3cc(Cl)ccc3c(NC3CCN(CCc4ccccc4)CC3)c2c1	2
COc1ccc2nc3cc(Cl)ccc3c(NC3CC4CCC(C3)N4Cc3ccccc3)c2c1 (stereo not drawn)	1.5

test system: not listed separately; assay: Cytotoxicity against mouse N2A cells assessed as maximal tolerant concentration; assay type: cell-based; details: read-out: MTD

Structure (SMILES)	MNTC [nM]
COc1ccc2nc3cc(Cl)ccc3c(NC3CCN(CCCc4ccccc4)CC3)c2c1	4000
COc1ccc2nc3cc(Cl)ccc3c(Nc3ccccc3)c2c1	5000
COc1ccc2nc3cc(Cl)ccc3c(Nc3ccc(CN4CCN(C)CC4)cc3)c2c1	4000
COc1ccc2nc3cc(Cl)ccc3c(Nc3ccc(N4CCN(C)CC4)cc3)c2c1	2500
CCN(CC)CCCC(C)Nc1c2ccc(Cl)cc2nc2ccc(OC)cc12 (stereo not drawn) [QUINACRINE]	2500
COc1ccc2nc3cc(Cl)ccc3c(NC3CCN(CCc4ccccc4)CC3)c2c1	2000
COc1ccc2nc3cc(Cl)ccc3c(NC3CC4CCC(C3)N4Cc3ccccc3)c2c1 (stereo not drawn)	2000

target: Major prion protein (Homo sapiens) (UniProt P04156); assay: Binding affinity to truncated human PrP 121-231 at 50 uM by surface plasmon resonance method; details: not given

Structure (SMILES)	RUmax [%]
COc1ccc2nc3cc(Cl)ccc3c(NC3CCN(CCCc4ccccc4)CC3)c2c1	115
COc1ccc2nc3cc(Cl)ccc3c(Nc3ccc(CN4CCN(C)CC4)cc3)c2c1	207
COc1ccc2nc3cc(Cl)ccc3c(Nc3ccc(N4CCN(C)CC4)cc3)c2c1	120
CCN(CC)CCCC(C)Nc1c2ccc(Cl)cc2nc2ccc(OC)cc12 (stereo not drawn) [QUINACRINE]	87.3
COc1ccc2nc3cc(Cl)ccc3c(NC3CCN(CCc4ccccc4)CC3)c2c1	174

test system: not listed separately; assay: Effective permeability of the compound at pH 7.4 at 30 to 50 uM by PAMPA assay; assay type: ADME; details: read-out: Peff

Structure (SMILES)	Papp at up to 50 µM [×10⁻⁶ cm/s]
COc1ccc2nc3cc(Cl)ccc3c(Nc3ccc(N4CCN(C)CC4)cc3)c2c1	8.13
CCN(CC)CCCC(C)Nc1c2ccc(Cl)cc2nc2ccc(OC)cc12 (stereo not drawn) [QUINACRINE]	19.3
COc1ccc2nc3cc(Cl)ccc3c(NC3CCN(CCc4ccccc4)CC3)c2c1	7.68
COc1ccc2nc3cc(Cl)ccc3c(NC3CC4CCC(C3)N4Cc3ccccc3)c2c1 (stereo not drawn)	8.31

test system: human MDR1; assay: not given; assay type: ADME, cell-based, Canis lupus familiaris; details: dog, MDCK-MDR1

Structure (SMILES)	Papp A→B at 2 h, 10 µM [×10⁻⁶ cm/s]
COc1ccc2nc3cc(Cl)ccc3c(Nc3ccc(N4CCN(C)CC4)cc3)c2c1	0.14
CCN(CC)CCCC(C)Nc1c2ccc(Cl)cc2nc2ccc(OC)cc12 (stereo not drawn) [QUINACRINE]	1.23

test system: human MDR1; assay: not given; assay type: ADME, cell-based, Canis lupus familiaris; details: dog, MDCK-MDR1; remark: another data set of the same source

Structure (SMILES)	Papp B→A at 2 h, 10 µM [×10⁻⁶ cm/s]
COc1ccc2nc3cc(Cl)ccc3c(Nc3ccc(N4CCN(C)CC4)cc3)c2c1	0.34
CCN(CC)CCCC(C)Nc1c2ccc(Cl)cc2nc2ccc(OC)cc12 (stereo not drawn) [QUINACRINE]	6.7

test system: not listed separately; assay: Permeability from apical to basolateral side of in wild type MDCK cells assessed as mass balance at 10 uM after 2 hrs; assay type: ADME, cell-based, Canis lupus familiaris; details: dog, read-out: permeability

Structure (SMILES)	recovery at 2 h, 10 µM [%]
COc1ccc2nc3cc(Cl)ccc3c(Nc3ccc(N4CCN(C)CC4)cc3)c2c1	11.3

test system: not listed separately; assay: Permeability from basolateral to apical side of in wild type MDCK cells assessed as mass balance at 10 uM after 2 hrs; assay type: ADME, cell-based, Canis lupus familiaris; details: dog, read-out: permeability

Structure (SMILES)	recovery at 2 h, 10 µM [%]
COc1ccc2nc3cc(Cl)ccc3c(Nc3ccc(N4CCN(C)CC4)cc3)c2c1	75.3

test system: human MDR1; assay: not given; assay type: ADME, cell-based, Canis lupus familiaris; details: dog, MDCK-MDR1; read-out: permeability

Structure (SMILES)	recovery at 2 h, 10 µM [%]
COc1ccc2nc3cc(Cl)ccc3c(Nc3ccc(N4CCN(C)CC4)cc3)c2c1	12.6

test system: human MDR1; assay: Permeability from basolateral to apical side of in MDCK cells overexpressing human MDR1 assessed as mass balance at 10 uM after 2 hrs; assay type: ADME, cell-based, Canis lupus familiaris; details: dog, read-out: permeability

Structure (SMILES)	recovery at 2 h, 10 µM [%]
COc1ccc2nc3cc(Cl)ccc3c(Nc3ccc(N4CCN(C)CC4)cc3)c2c1	73

test system: MDCK; assay: Permeability from apical to basolateral side of in wild type MDCK cells assessed as cell retention at 10 uM after 2 hrs; assay type: ADME, cell-based, Canis lupus familiaris; details: dog

Structure (SMILES)	permeability [%]
COc1ccc2nc3cc(Cl)ccc3c(Nc3ccc(N4CCN(C)CC4)cc3)c2c1	66.4
CCN(CC)CCCC(C)Nc1c2ccc(Cl)cc2nc2ccc(OC)cc12 (stereo not drawn) [QUINACRINE]	80.2

test system: MDCK; assay: Permeability from basolateral to apical side of in wild type MDCK cells assessed as adsorption on transwell at 10 uM after 2 hrs; assay type: ADME, cell-based, Canis lupus familiaris; details: dog

Structure (SMILES)	permeability [%]
COc1ccc2nc3cc(Cl)ccc3c(Nc3ccc(N4CCN(C)CC4)cc3)c2c1	3.5
CCN(CC)CCCC(C)Nc1c2ccc(Cl)cc2nc2ccc(OC)cc12 (stereo not drawn) [QUINACRINE]	3.2

test system: MDCK; assay: not given; assay type: ADME, cell-based, Canis lupus familiaris; details: dog, 2 h, 10 µM

Structure (SMILES)	permeability [%]
COc1ccc2nc3cc(Cl)ccc3c(Nc3ccc(N4CCN(C)CC4)cc3)c2c1	6.1
CCN(CC)CCCC(C)Nc1c2ccc(Cl)cc2nc2ccc(OC)cc12 (stereo not drawn) [QUINACRINE]	5.5

test system: MDCK; assay: not given; assay type: ADME, cell-based, Canis lupus familiaris; details: dog, 2 h, 10 µM; remark: another data set of the same source

Structure (SMILES)	permeability [%]
COc1ccc2nc3cc(Cl)ccc3c(Nc3ccc(N4CCN(C)CC4)cc3)c2c1	3.1
CCN(CC)CCCC(C)Nc1c2ccc(Cl)cc2nc2ccc(OC)cc12 (stereo not drawn) [QUINACRINE]	3.9

test system: not listed separately; assay: Solubility of the compound in phosphate buffer at 50 uM; assay type: physicochemical; details: not given

Structure (SMILES)	solubility
COc1ccc2nc3cc(Cl)ccc3c(Nc3ccccc3)c2c1	Insoluble
COc1ccc2nc3cc(Cl)ccc3c(NC3CC4CCC(C3)N4Cc3ccccc3)c2c1 (stereo not drawn)	Insoluble

test system: MDCK; assay: Permeability from basolateral to apical side of in wild type MDCK cells assessed as cell retention at 10 uM after 2 hrs; assay type: ADME, cell-based, Canis lupus familiaris; details: dog

Structure (SMILES)	permeability [%]
COc1ccc2nc3cc(Cl)ccc3c(Nc3ccc(N4CCN(C)CC4)cc3)c2c1	27.5
CCN(CC)CCCC(C)Nc1c2ccc(Cl)cc2nc2ccc(OC)cc12 (stereo not drawn) [QUINACRINE]	27.7

test system: MDCK; assay: Permeability from apical to basolateral side of in P-glycoprotein-mediated MDCK cells over expressing human MDR1 assessed as cell retention at 10 uM after 2 hrs; assay type: ADME, cell-based, Canis lupus familiaris; details: dog

Structure (SMILES)	permeability [%]
COc1ccc2nc3cc(Cl)ccc3c(Nc3ccc(N4CCN(C)CC4)cc3)c2c1	67
CCN(CC)CCCC(C)Nc1c2ccc(Cl)cc2nc2ccc(OC)cc12 (stereo not drawn) [QUINACRINE]	35.5

test system: MDCK; assay: Permeability from basolateral to apical side of in P-glycoprotein-mediated MDCK cells over expressing human MDR1 assessed as cell retention at 10 uM after 2 hrs; assay type: ADME, cell-based, Canis lupus familiaris; details: dog

Structure (SMILES)	permeability [%]
COc1ccc2nc3cc(Cl)ccc3c(Nc3ccc(N4CCN(C)CC4)cc3)c2c1	44.2
CCN(CC)CCCC(C)Nc1c2ccc(Cl)cc2nc2ccc(OC)cc12 (stereo not drawn) [QUINACRINE]	24.5

test system: MDCK; assay: Permeability from apical to basolateral side of in wild type MDCK cells assessed as adsorption on transwell at 10 uM after 2 hrs; assay type: ADME, cell-based, Canis lupus familiaris; details: dog

Structure (SMILES)	permeability [%]
COc1ccc2nc3cc(Cl)ccc3c(Nc3ccc(N4CCN(C)CC4)cc3)c2c1	11.4
CCN(CC)CCCC(C)Nc1c2ccc(Cl)cc2nc2ccc(OC)cc12 (stereo not drawn) [QUINACRINE]	5.3

test system: not listed separately; assay: in vitro; details: dog, MDCK

Structure (SMILES)	efflux ratio at 2 h, 10 µM
COc1ccc2nc3cc(Cl)ccc3c(Nc3ccc(N4CCN(C)CC4)cc3)c2c1	1.2

test system: human MDR1; assay: in vitro; details: dog, MDCK-MDR1

Structure (SMILES)	efflux ratio at 2 h, 10 µM
COc1ccc2nc3cc(Cl)ccc3c(Nc3ccc(N4CCN(C)CC4)cc3)c2c1	2.4
